Data on 15 molecules can be found in patent US6828317B2, “Antimicrobial thiadiazinone derivatives and their application for treatment of bacterial infections” (Pharmacia & Upjohn Company, priority 2002, dated 2004).

A word on the melting point: it is the temperature, or range, at which the solid turns liquid.

One series relates to S. pneumoniae UC9912. The series is described as follows: MIC by agar dilution, S. pneumoniae UC9912. To be noted: Streptococcus pneumoniae, Mueller Hinton agar, overnight at 35° C. Type of series: cell-based. An excerpt: (§1) The in vitro activity of compounds of the subject invention may be assessed by standard testing procedures such as the determination of minimum inhibitory concentration (MIC) by agar dilution as described in “Approved Standard. Methods for Dilution Antimicrobial Susceptibility Tests for Bacteria that Grow Aerobically,” 3rd ed., published 1993 by the National Committee for Clinical Laboratory standards, Villanova, Pa., USA. The in vitro MICs of test compounds may be determined by a standard agar dilution method. A stock drug solution of each analog is prepared in a preferred solvent, usually DMSO:H2O (1:3). Serial 2-fold dilutions of each sample are made using 1.0 ml aliquots of sterile distilled water. To each 1.0 ml aliquot of drug is added 9 ml of molten Mueller Hinton agar medium. The drug-supplemented agar is mixed, poured into 15×100 mm petri dishes, and allowed to solidify and dry prior to inoculation. Vials of each of the test microorganisms are maintained frozen in the vapor phase of a liquid nitrogen freezer. Test cultures are grown overnight at 35° C. on the medium appropriate for the microorganism. Colonies are harvested with a sterile swab, and cell suspensions are prepared in Trypticase Soy broth (TSB) to equal the turbidity of a 0.5 McFarland standard. A 1:20 dilution of each suspension is made in TSB. The plates containing the drug supplemented agar are inoculated with a 0.001 ml drop of the cell suspension using a Steers replicator, yielding approximately 10^4 to 10^5 cells per spot. The plates are incubated overnight at 35° C. Following incubation the Minimum Inhibitory Concentration (MIC μg/ml), the lowest concentration of drug that inhibits visible growth of the microorganism, is read and recorded.
A general note: In agar dilution the substance is mixed into plates at graded concentrations.

In another series the test system is S. aureus UC9213. The series is described as follows: MIC by agar dilution, S. aureus UC9213. The class given is cell-based. The conditions noted are these: Staphylococcus aureus, Mueller Hinton agar, overnight at 35° C.
From the text: as §1

The test system of the next series is H. influenzae 30063. Nature of the series: MIC by agar dilution, H. influenzae 30063. The class given is cell-based. To be noted: Haemophilus influenzae, Mueller Hinton agar, overnight at 35° C.
From the text: as §1

SMILES strings stand for the structures. In brackets after ≈: the same amount, converted by molar mass.

Turning to `CCC1SC(c2ccc(N3C[C@H](CNC(C)=O)OC3=O)cc2F)=NNC1=O` (stereo partly drawn) [Example 5, N-{3-[3-Fluoro-4-(6-ethyl-5-oxo-5,6-dihydro-4H-[1,3,4]thiadiazin-2-yl)-phenyl]-2-oxo-oxazolidin-5(S)-ylmethyl}-acetamide], the melting point fell in the range of 177 to 179 °C. The MIC with S. pneumoniae UC9912 is 2 µg/mL (≈ 5.07 µM). Further, the MIC in the series with S. aureus UC9213 was found to be 4 µg/mL (≈ 10.1 µM). Moreover, the MIC in the series on H. influenzae 30063 came to 32 µg/mL (≈ 81.1 µM).

In turn, `CC(=O)NC[C@H]1CN(c2ccc(C3=NNC(=O)C4(CCC4)S3)c(F)c2)C(=O)O1` [Example 8, N-{3-[3-Fluoro-4-(9-oxo-5-thia-7,8-diazaspiro[3.5]non-6-en-6-yl)-phenyl]-2-oxo-oxazolidin-5(S)-ylmethyl}-acetamide] showed a melting point of 214 to 215 °C. In the series with S. pneumoniae UC9912, the MIC amounted to 0.5 µg/mL (≈ 1.23 µM). The molecule also displayed an MIC against S. aureus UC9213 of 2 µg/mL (≈ 4.92 µM). In the series on H. influenzae 30063, this molecule had an MIC of 32 µg/mL (≈ 78.7 µM).

In turn, `CC(=O)NC[C@H]1CN(c2ccc(C3=NNC(=O)C(c4ccccc4)S3)c(F)c2)C(=O)O1` (stereo partly drawn) [Example 9, N-{3-[3-Fluoro-4-(5-oxo-6-phenyl-5,6-dihydro-4H-[1,3,4]thiadiazin-2-yl)-phenyl]-2-oxo-oxazolidin-5(S)-ylmethyl}-acetamide] had a melting point of 122 to 123 °C. In addition, the MIC against S. pneumoniae UC9912 was 0.5 µg/mL (≈ 1.13 µM). The molecule further gave an MIC in the series on S. aureus UC9213 of 4 µg/mL (≈ 9.04 µM). In addition, the MIC in the series with H. influenzae 30063 amounted to 16 µg/mL (≈ 36.2 µM).

Regarding `CCC(=O)NC[C@H]1CN(c2ccc(C3=NNC(=O)CS3)c(F)c2)C(=O)O1` [Example 15, N-{3-[3-Fluoro-4-(5-oxo-5,6-dihydro-4H-[1,3,4]thiadiazin-2-yl)-phenyl]-2-oxo-oxazolidin-5(S)-ylmethyl}-propionamide], the melting point was 192 to 193 °C. This molecule also came in with an MIC against S. pneumoniae UC9912 of less than 0.06 µg/mL. This molecule also yielded an MIC against S. aureus UC9213 of 1 µg/mL (≈ 2.63 µM). In addition, the MIC against H. influenzae 30063 was found to be 2 µg/mL (≈ 5.26 µM).

In turn, `O=C1CSC(c2ccc(N3C[C@H](CNC(=O)C4CC4)OC3=O)cc2F)=NN1` [Example 16, Cyclopropanecarboxylic acid {3-[3-fluoro-4-(5-oxo-5,6-dihydro-4H-[1,3,4]thiadiazin-2-yl)-phenyl]-2-oxo-oxazolidin-5(S)-ylmethyl}-amide] had a melting point of 239 to 240 °C. In the series on S. pneumoniae UC9912, this molecule showed an MIC of 0.125 µg/mL (≈ 0.319 µM). The molecule also displayed an MIC with S. aureus UC9213 of 2 µg/mL (≈ 5.1 µM). The same molecule came in with an MIC in the series with H. influenzae 30063 of 2 µg/mL (≈ 5.1 µM).

`O=C(CO)NC[C@H]1CN(c2ccc(C3=NNC(=O)CS3)c(F)c2)C(=O)O1` [Example 17, N-{3-[3-Fluoro-4-(5-oxo-5,6-dihydro-4H-[1,3,4]thiadiazin-2-yl)-phenyl]-2-oxo-oxazolidin-5(S)-ylmethyl}-2-hydroxyacetamide]: the melting point is 157 to 158 °C. Besides, the MIC with S. pneumoniae UC9912 came to 0.125 µg/mL (≈ 0.327 µM). Also, the MIC with S. aureus UC9213 came out at 2 µg/mL (≈ 5.23 µM). Besides, the MIC against H. influenzae 30063 worked out at 4 µg/mL (≈ 10.5 µM).

In turn, `NC(=O)NC[C@H]1CN(c2ccc(C3=NNC(=O)CS3)c(F)c2)C(=O)O1` [Example 18, {3-[3-Fluoro-4-(5-oxo-5,6-dihydro-4H-[1,3,4]thiadiazin-2-yl)-phenyl]-2-oxo-oxazolidin-5(S)-ylmethyl}-urea] had a melting point of 235 to 236 °C. In the series with S. pneumoniae UC9912, this molecule gave an MIC of 0.125 µg/mL (≈ 0.34 µM). The MIC against S. aureus UC9213 is 2 µg/mL (≈ 5.44 µM). This molecule also came in with an MIC against H. influenzae 30063 of 4 µg/mL (≈ 10.9 µM).

`CC(C)(C)OC(=O)NC[C@H]1CN(c2ccc(C3=NNC(=O)CS3)c(F)c2)C(=O)O1` [Example 20, N-{3-[3-Fluoro-4-(5-oxo-5,6-dihydro-4H-[1,3,4]thiadiazin-2-yl)-phenyl]-2-oxo-oxazolidin-5(S)-ylmethyl}-carbamic acid tert-butyl ester] gave a melting point of 167 to 168 °C. The MIC in the series on S. pneumoniae UC9912 worked out at 2 µg/mL (≈ 4.71 µM). In addition, the MIC against S. aureus UC9213 amounted to 2 µg/mL (≈ 4.71 µM). The MIC with H. influenzae 30063 was 64 µg/mL (≈ 151 µM).

In turn, `CC(=O)CC(=O)NC[C@H]1CN(c2ccc(C3=NNC(=O)CS3)c(F)c2)C(=O)O1` [Example 21, N-{3-[3-Fluoro-4-(5-oxo-5,6-dihydro-4H-[1,3,4]thiadiazin-2-yl)-phenyl]-2-oxo-oxazolidin-5(S)-ylmethyl}-3-oxo-butyramide] showed a melting point of 176 to 178 °C. In the series on S. pneumoniae UC9912, this molecule had an MIC of 0.5 µg/mL (≈ 1.22 µM). The molecule further came in with an MIC in the series on S. aureus UC9213 of 4 µg/mL (≈ 9.79 µM). This molecule also came in with an MIC with H. influenzae 30063 of 8 µg/mL (≈ 19.6 µM).

In the case of `O=C(CC(=O)c1ccc(F)cc1)NC[C@H]1CN(c2ccc(C3=NNC(=O)CS3)c(F)c2)C(=O)O1` [Example 22, N-{3-[3-Fluoro-4-(5-oxo-5,6-dihydro-4H-[1,3,4]thiadiazin-2-yl)-phenyl]-2-oxo-oxazolidin-5(S)-ylmethyl}-3-(4-fluorophenyl)-3-oxo-propionamide], the melting point lay in the range of 184 to 187 °C. In the series with S. pneumoniae UC9912, this molecule returned an MIC of 1 µg/mL (≈ 2.05 µM). The molecule also registered an MIC in the series with S. aureus UC9213 of 4 µg/mL (≈ 8.19 µM). The molecule further yielded an MIC against H. influenzae 30063 of 16 µg/mL (≈ 32.8 µM).

For the molecule `O=C(/C=C/c1ccc(/C=N/O)cc1)NC[C@H]1CN(c2ccc(C3=NNC(=O)CS3)c(F)c2)C(=O)O1` [Example 23, N-{3-[3-Fluoro-4-(5-oxo-5,6-dihydro-4H-[1,3,4]thiadiazin-2-yl)-phenyl]-2-oxo-oxazolidin-5(S)-ylmethyl}-3-[4-(hydroxyimino-methyl)-phenyl]-acrylamide], the melting point lay in the range of 144 to 145 °C. Also, the MIC in the series with S. pneumoniae UC9912 turned out to be 0.25 µg/mL (≈ 0.503 µM). The MIC against S. aureus UC9213 came out at 1 µg/mL (≈ 2.01 µM). This molecule also showed an MIC against H. influenzae 30063 of 8 µg/mL (≈ 16.1 µM).

Turning to `CC(=S)NC[C@H]1CN(c2ccc(C3=NNC(=O)CS3)c(F)c2)C(=O)O1` [Example 25, N-{3-[3-Fluoro-4-(5-oxo-5,6-dihydro-4H-[1,3,4]thiadiazin-2-yl)-phenyl]-2-oxo-oxazolidin-5(S)-ylmethyl}-thioacetamide], the melting point was in the range of 182 to 183 °C. Moreover, in the series with S. pneumoniae UC9912, the MIC was less than 0.06 µg/mL. The MIC in the series with S. aureus UC9213 was determined as 0.125 µg/mL (≈ 0.327 µM). The molecule further registered an MIC against H. influenzae 30063 of 0.5 µg/mL (≈ 1.31 µM).

As to `CC(=S)NC[C@H]1CN(c2ccc(C3=NNC(=S)CS3)c(F)c2)C(=O)O1` [Example 26, N-{3-[3-Fluoro-4-(5-thioxo-5,6-dihydro-4H-[1,3,4]thiadiazin-2-yl)-phenyl]-2-oxo-oxazolidin-5(S)-ylmethyl}-thioacetamide], the melting point lay within 158 to 161 °C. In addition, in the series with S. pneumoniae UC9912, the MIC is less than 0.06 µg/mL. This molecule also came in with an MIC in the series with S. aureus UC9213 of 0.25 µg/mL (≈ 0.627 µM). The MIC with H. influenzae 30063 amounted to 1 µg/mL (≈ 2.51 µM).

`CC(=O)NC[C@H]1CN(c2ccc(C3=NN(C)C(=O)CS3)c(F)c2)C(=O)O1` [Example 32, N-{3-[3-Fluoro-4-(4-methyl-5-oxo-5,6-dihydro-[1,3,4]thiadiazin-2-yl)-phenyl]-2-oxo-oxazolidin-5(S)-ylmethyl}-acetamide] gave a melting point of 179 to 180 °C. Also, the MIC against S. pneumoniae UC9912 came to 0.5 µg/mL (≈ 1.31 µM). Further, in the series on S. aureus UC9213, the MIC was 2 µg/mL (≈ 5.26 µM). This molecule also gave an MIC with H. influenzae 30063 of 16 µg/mL (≈ 42.1 µM).

In the case of `O=C1CSC(c2ccc(N3C[C@H](CO)OC3=O)cc2F)=NN1` [Example 34], the melting point lay in the range of 224 to 227 °C. The molecule further displayed an MIC with S. pneumoniae UC9912 of 0.25 µg/mL (≈ 0.768 µM). In the series with S. aureus UC9213, this molecule returned an MIC of 0.125 µg/mL (≈ 0.384 µM). The MIC against H. influenzae 30063 came to 1 µg/mL (≈ 3.07 µM).
